# pIC50: −log10 of the molar value.
# Molecular target: B-Raf(V599E) kinase (Homo sapiens, UniProt P15056, V600E)
# Experiment: B-Raf(V599E) kinase assay B1 (construct 1, MEK1 substrate, coupled spectrophotometric)
# Type: biochemical
# Settings: not given
# Description: The test compounds were incubated with the reaction mixtureat 30° C. for 2 h. […] The reaction rate was calculated using the […] time frame. […] IC50 values were calculated from a series of percent inhibition values determined at a range of inhibitor concentrations using software routines as implemented in the GraphPad Prism software package.
# B-Raf(V599E) kinase, sequence (P15056 with tags, fused parts or gaps V600E): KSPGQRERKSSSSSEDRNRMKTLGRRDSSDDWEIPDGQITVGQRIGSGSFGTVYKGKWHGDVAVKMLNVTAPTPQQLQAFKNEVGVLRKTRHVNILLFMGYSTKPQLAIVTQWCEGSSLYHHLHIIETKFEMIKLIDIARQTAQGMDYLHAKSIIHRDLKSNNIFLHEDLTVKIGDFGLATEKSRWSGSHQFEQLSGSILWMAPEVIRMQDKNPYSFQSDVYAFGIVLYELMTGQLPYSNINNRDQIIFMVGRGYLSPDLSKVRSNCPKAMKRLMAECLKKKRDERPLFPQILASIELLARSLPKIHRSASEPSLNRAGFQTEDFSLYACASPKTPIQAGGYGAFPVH
row,SMILES,pIC50
1,"CC(C)(C)c1cc(NC(=O)Nc2cccc(F)c2F)n(-c2ccc3c(c2)CCC(=O)N3)n1 [Example 320, 1-(3-t-butyl-1-(2-oxo-1,2,3,4-tetrahydro-quinolin-6-yl)-1H-pyrazol-5-yl)-3-(2,3-difluorophenyl)urea]",8.34
2,"CC(C)(C)c1cc(NC(=O)Nc2ccc(F)cc2F)n(-c2ccc3c(c2)CCC(=O)N3)n1 [Example 321, 1-(3-t-butyl-1-(2-oxo-1,2,3,4-tetrahydro-quinolin-6-yl)-1H-pyrazol-5-yl)-3-(2,4-difluorophenyl)urea]",8.14
3,"CC(C)(C)c1cc(NC(=O)Nc2ccc(F)c(F)c2F)n(-c2ccc3c(c2)CCC(=O)N3)n1 [Example 322, 1-(3-t-butyl-1-(2-oxo-1,2,3,4-tetrahydro-quinolin-6-yl)-1H-pyrazol-5-yl)-3-(2,3,4-trifluorophenyl)urea]",8.39
4,"CC(C)(C)c1cc(NC(=O)Nc2cc(F)c(F)cc2F)n(-c2ccc3c(c2)CCC(=O)N3)n1 [Example 323, 1-(3-t-butyl-1-(2-oxo-1,2,3,4-tetrahydro-quinolin-6-yl)-1H-pyrazol-5-yl)-3-(2,4,5-trifluorophenyl)urea]",8.47
5,"CC(C)(C)c1cc(NC(=O)Nc2cc(F)c(F)c(F)c2)n(-c2ccc3c(c2)CCC(=O)N3)n1 [Example 324, 1-(3-t-butyl-1-(2-oxo-1,2,3,4-tetrahydro-quinolin-6-yl)-1H-pyrazol-5-yl)-3-(3,4,5-trifluorophenyl)urea]",7.77
6,"CC(C)(C)c1cc(NC(=O)Nc2cccc(Oc3ccccc3)c2)n(-c2ccc3c(c2)CCC(=O)N3)n1 [Example 325, 1-(3-t-butyl-1-(2-oxo-1,2,3,4-tetrahydro-quinolin-6-yl)-1H-pyrazol-5-yl)-3-(3-phenoxyphenyl)urea]",8.35
7,"CC(C)(C)c1cc(NC(=O)Nc2cc(F)cc(F)c2)n(-c2ccc3c(c2)CCC(=O)N3)n1 [Example 326, 1-(3-t-butyl-1-(2-oxo-1,2,3,4-tetrahydro-quinolin-6-yl)-1H-pyrazol-5-yl)-3-(3,5-difluorophenyl)urea]",7.77
8,"CC(C)(C)c1cc(NC(=O)NC2CCCCC2)n(-c2ccc3c(c2)CNCC3)n1 [Example 327, 1-(3-t-butyl-1-(1,2,3,4-tetrahydroisoquinolin-7-yl)-1H-pyrazol-5-yl)-3-cyclohexylurea]",6.48
9,"CC(C)(C)c1cc(NC(=O)Nc2cccc(F)c2F)n(-c2ccc3c(c2)CCN(S(C)(=O)=O)C3)n1 [Example 328, 1-(3-t-butyl-1-(2-(methylsulfonyl)-1,2,3,4-tetrahydroisoquinolin-6-yl)-1H-pyrazol-5-yl)-3-(2,3-difluorophenyl)urea]",7.60
10,"CC(C)(C)c1cc(NC(=O)Nc2cccc(F)c2F)n(-c2ccc3[nH]c(=O)ccc3c2)n1 [Example 329, 1-(3-t-butyl-1-(2-oxo-1,2-dihydroquinolin-6-yl)-1H-pyrazol-5-yl)-3-(2,3-difluorophenyl)urea]",8.38
11,CC(C)(C)c1cc(NC(=O)Nc2cc(F)cc(F)c2F)n(-c2ccc3[nH]c(=O)ccc3c2)n1 [Example 331],8.47
12,"CC(C)(C)c1cc(NC(=O)Nc2ccc(F)cc2F)n(-c2ccc3[nH]c(=O)ccc3c2)n1 [Example 332, 1-(3-t-butyl-1-(2-oxo-1,2-dihydroquinolin-6-yl)-1H-pyrazol-5-yl)-3-(2,4-difluorophenyl)urea]",8.36
13,"CC(C)(C)c1cc(NC(=O)Nc2cccc(F)c2)n(-c2ccc3c(c2)CCNCC3)n1 [Example 335, 1-(3-t-butyl-1-(2,3,4,5-tetrahydro-1H-benzo[d]azepin-7-yl)-1 H-pyrazol-5-yl)-3-(3-fluorophenyl)urea]",6.98
14,"CC(C)(C)c1cc(NC(=O)Nc2ccc(F)cc2F)n(-c2cccc(CC(=O)O)c2)n1 [Example 369, 2-(3-(3-t-butyl-5-(3-(2,4-difluorophenyl)-ureido)-1H-pyrazol-1-yl)phenyl)acetic acid]",7.82
15,"CC(C)(C)c1cc(NC(=O)Nc2cc(F)c(F)cc2F)n(-c2cccc(CC(=O)O)c2)n1 [Example 370, 2-(3-(3-t-butyl-5-(3-(2,4,5-trifluorophenyl)-ureido)-1H-pyrazol-1-yl)phenyl)acetic acid]",8.10
16,"CC(C)(C)c1cc(NC(=O)Nc2ccccc2F)n(-c2cccc(CC(=O)O)c2)n1 [Example 371, 2-(3-(3-t-butyl-5-(3-(2-fluorophenyl)-ureido)-1H-pyrazol-1-yl)phenyl)acetic acid]",8.00
17,"CC(C)(C)c1cc(NC(=O)Nc2ccc3c(c2)OCO3)n(-c2cccc(CC(=O)O)c2)n1 [Example 372, 2-(3-{5-[3-(benzo[1,3]dioxol-5-yl)ureido]-3-t-butyl-1H-pyrazol-1-yl}phenyl)acetic acid]",7.57
18,"CC(C)(C)c1cc(NC(=O)NC2CCCCC2)n(-c2cccc(CC(N)=O)c2)n1 [Example 391, 1-{1-[3-(2-amino-2-oxoethyl)phenyl]-3-t-butyl-1H-pyrazol-5-yl}-3-cyclohexylurea]",7.43
19,"C[C@H](NC(=O)Nc1cc(C(C)(C)C)nn1-c1cccc(CC(N)=O)c1)c1ccccc1 [Example 392, 1-{1-[3-(2-amino-2-oxoethyl)phenyl]-3-t-butyl-1H-pyrazol-5-yl}-3-((S)-1-phenylethyl)urea]",6.66
20,"CC(C)(C)c1cc(NC(=O)Nc2ccccc2F)n(-c2cccc(CC(N)=O)c2)n1 [Example 393, 1-{1-[3-(2-amino-2-oxoethyl)phenyl]-3-t-butyl-1H-pyrazol-5-yl}-3-(2-fluorophenyl)urea]",7.70
21,"CC(C)(C)c1cc(NC(=O)Nc2ccc3c(c2)OCO3)n(-c2cccc(CC(N)=O)c2)n1 [Example 395, 1-{1-[3-(2-amino-2-oxoethyl)phenyl]-3-t-butyl-1H-pyrazol-5-yl}-3-(benzo[d][1,3]dioxol-5-yl)urea]",7.30
22,"CC(C)(C)c1cc(NC(=O)Nc2cccc(Oc3ccccc3)c2)n(-c2cccc(CC(N)=O)c2)n1 [Example 433, 1-(1-(3-(2-amino-2-oxoethyl)phenyl)-3-t-butyl-1H-pyrazol-5-yl)-3-(3-phenoxyphenyl)urea]",8.29
23,"CC(C)(C)c1cc(NC(=O)Nc2ccc(F)c(F)c2)n(-c2cccc(CC(N)=O)c2)n1 [Example 436, 1-(1-(3-(2-amino-2-oxoethyl)phenyl)-3-t-butyl-1H-pyrazol-5-yl)-3-(3,4-difluorophenyl)urea]",7.74
24,"CC(C)NC(=O)Cc1cccc(-n2nc(C(C)(C)C)cc2NC(=O)Nc2cccc(Cl)c2Cl)c1 [Example 441, 1-(3-t-butyl-1-(3-(2-(isopropylamino)-2-oxoethyl)phenyl)-1H-pyrazol-5-yl)-3-(2,3-dichlorophenyl)urea]",8.19
25,"CC(C)(C)c1cc(NC(=O)Nc2cccc(Cl)c2Cl)n(-c2cccc(CC(=O)N3CC[C@@H](O)C3)c2)n1 [Example 443, 1-(3-t-butyl-1-(3-(2-((R)-3-hydroxypyrrolidin-1-yl)-2-oxoethyl)phenyl)-1H-pyrazol-5-yl)-3-(2,3-dichlorophenyl)urea]",8.05
26,"CC(C)(C)c1cc(NC(=O)Nc2cccc(Cl)c2Cl)n(-c2ccc(CC(N)=O)cc2)n1 [Example 492, 1-(1-(4-(2-amino-2-oxoethyl)phenyl)-3-t-butyl-1H-pyrazol-5-yl)-3-(2,3-dichlorophenyl)urea]",8.19

# Same assay, conditions: Method B1; read-out: B-Raf Data
row,SMILES,pIC50
1,"O=C(O)Cc1cccc(-n2nc(-c3cccs3)cc2NC(=O)Nc2cccc(Cl)c2Cl)c1 [Example 366, 2-(3-(5-(3-(2,3-dichlorophenyl)-ureido)-3-(thiophen-2-yl)-1H-pyrazol-1-yl)phenyl)acetic acid]",6.80
2,"O=C(O)Cc1cccc(-n2nc(C3CCCC3)cc2NC(=O)Nc2cccc(Cl)c2Cl)c1 [Example 368, 2-(3-(3-cyclopentyl-5-(3-(2,3-dichlorophenyl)-ureido)-1H-pyrazol-1-yl)phenyl)acetic acid]",8.21
3,"CC(C)(C)c1cc(NC(=O)Nc2cccc(F)c2F)n(-c2cccc(CC(N)=O)c2)n1 [Example 394, 1-{1-[3-(2-amino-2-oxoethyl)phenyl]-3-t-butyl-1H-pyrazol-5-yl}-3-(2,3-difluorophenyl)urea]",8.06
4,"CC(C)(C)c1cc(NC(=O)Nc2cc(F)c(F)cc2F)n(-c2cccc(CC(N)=O)c2)n1 [Example 434, 1-(1-(3-(2-amino-2-oxoethyl)phenyl)-3-t-butyl-1H-pyrazol-5-yl)-3-(2,4,5-trifluorophenyl)urea]",8.17
5,"CC(C)(C)c1cc(NC(=O)Nc2ccc(F)c(F)c2F)n(-c2cccc(CC(N)=O)c2)n1 [Example 435, 1-(1-(3-(2-amino-2-oxoethyl)phenyl)-3-t-butyl-1H-pyrazol 5-yl)-3-(2,3,4-trifluorophenyl)urea]",8.14
6,"CC(C)(C)c1cc(NC(=O)Nc2cccc(-c3cnccn3)c2)n(-c2cccc(CC(N)=O)c2)n1 [Example 437, 1-(1-(3-(2-amino-2-oxoethyl)phenyl)-3-t-butyl-1H-pyrazol-5-yl)-3-(3-(pyrazin-2-yl)phenyl)urea]",6.55
7,"NC(=O)Cc1cccc(-n2nc(-c3cccs3)cc2NC(=O)Nc2cccc(Cl)c2Cl)c1 [Example 445, 1-(1-(3-(2-amino-2-oxoethyl)phenyl)-3-(thiophen-2-yl)-1H-pyrazol-5-yl)-3-(2,3-dichlorophenyl)urea]",6.08

# Molecular target: phosphorylated p-38-alpha kinase (Homo sapiens, UniProt Q16539)
# Experiment: P-38 alpha kinase assay P1 (coupled spectrophotometric, 2 h pre-incubation)
# Type: biochemical
# Settings: method P1 (2 h pre-incubation); read-out: P-38 Data
# phosphorylated p-38-alpha kinase, sequence (Q16539 1-360 isoform Q16539-2): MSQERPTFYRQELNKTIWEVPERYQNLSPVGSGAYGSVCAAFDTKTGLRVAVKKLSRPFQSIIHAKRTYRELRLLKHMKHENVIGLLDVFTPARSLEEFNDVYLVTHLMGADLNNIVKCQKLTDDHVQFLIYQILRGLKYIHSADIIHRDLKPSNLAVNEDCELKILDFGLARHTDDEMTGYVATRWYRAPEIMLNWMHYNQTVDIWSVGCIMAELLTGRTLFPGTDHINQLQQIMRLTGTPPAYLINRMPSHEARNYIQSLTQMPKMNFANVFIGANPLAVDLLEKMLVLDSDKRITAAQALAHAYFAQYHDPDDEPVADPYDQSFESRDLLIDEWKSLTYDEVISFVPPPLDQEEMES
row,SMILES,pIC50
1,CC(C)(C)c1cc(NC(=O)Nc2ccc(Cl)cc2)n(-c2cccc(CO)c2)n1 [Example 224],7.42
2,"O=C(O)Cc1cccc(-n2nc(-c3nccs3)cc2NC(=O)Nc2cccc(Cl)c2Cl)c1 [Example 359, 2-(3-(5-(3-(2,3-dichlorophenyl)ureido)-3-(thiazol-2-yl)-1H-pyrazol-1-yl)phenyl)acetic acid]",7.15
3,"O=C(O)Cc1cccc(-n2nc(-c3ccccc3F)cc2NC(=O)N[C@H]2CCc3ccccc32)c1 [Example 360, 2-(3-(5-(3-((S)-2,3-dihydro-1H-inden-1-yl)ureido)-3-(2-fluorophenyl)-1H-pyrazol-1-yl)phenyl)acetic acid]",7.70
